# Experiments:
# hippocampus of TBI rats = experiment: Controlled cortical impact TBI: hippocampal Western blot; assay type: in vivo, rat
# Procedure: (§1) This study used male Sprague-Dawley rats weighing 300-350 g and aged 8 weeks, obtained from DBL Co. (Chungcheongbuk-do, Republic of Korea). The rats were housed in a controlled environment with a temperature of 20 ± 2 °C, a relative humidity of 55 ± 5%, and a 12-hour light/dark cycle. They were provided ad libitum access to food and water. To minimize stress associated with transportation, animals underwent a one-week acclimatization period before the start of the experiments. All experimental procedures were conducted in compliance with the guidelines of the National Institutes of Health for the care and use of laboratory animals and were approved by the Hallym University Institutional Animal Care and Use Committee (protocol # Hallym 2022-23, approved on July 15, 2022). This manuscript follows the principles outlined in the Animal research: reporting in vivo experiments (ARRIVE) guidelines.
# A controlled cortical impact (CCI) model was used to induce TBI in rats. Animals were anesthetized with 1-1.5% isoflurane in a 30:70 oxygen-to-nitrous oxide mixture and securely positioned in a stereotaxic frame. A 3 mm craniotomy was performed using a portable drill at a site 2.8 mm lateral to the midline and 3.0 mm posterior to Bregma. TBI was induced using an Impact One™ Stereotaxic Impactor (Leica Biosystems) equipped with a 3 mm flat-tip, set to deliver an impact at a velocity of 5 m/s and a depth of 3 mm. Throughout the procedure, body temperature was maintained at 36-37.5°C using a homeothermic blanket system to prevent hypothermia. […] At designated time points (3 hours, 24 hours, or 2 weeks post-injury), animals were euthanized via transcardial perfusion with saline, followed by 4% paraformaldehyde (PFA). Brains were post-fixed in 4% PFA for 1 hour, cryoprotected in 30% sucrose, and sectioned at a 30 μm thickness using a cryostat microtome (CM1850; Leica, Wetzlar, Germany). Brain sections were stored in cryoprotectant solution at 4°C until further analysis.
# Hippocampal samples were homogenized in a lysis buffer containing RIPA buffer (IBS-BR002, iNtRON, Republic of Korea), phosphatase inhibitor (Sigma, USA), and protease inhibitor (Sigma, USA). The homogenates were centrifuged at 14,000 × g for 20 minutes at 4°C, and the supernatants were collected. Protein concentrations were determined using the Bradford protein assay. For analysis, 25 μg of protein from each sample was mixed with SDS loading buffer, separated through SDS-PAGE, and transferred onto PVDF membranes. Membranes were blocked for 2 hours at room temperature with either 5% skim milk or 3% BSA to minimize nonspecific binding. Subsequently, the membranes were incubated overnight at 4°C with primary antibodies diluted in blocking buffer. The following primary antibodies were used: p-p38 MAPK (1:1000, Cell Signaling), p-eIF2α (1:1000, Cell Signaling), p-PERK (1:1000, Cell Signaling), LAMP2 (1:1000, Invitrogen), LC3B (1:1000, Invitrogen), IL-1β (1:500, Gene Tex), TNF-α (1:500, Abcam), and β-actin (1:10,000, Cell Signaling). After primary antibody incubation, membranes were washed in TBS-T (Bio-Rad) and incubated with secondary antibodies for 1 hour at room temperature. Signals were visualized using a chemiluminescence detection system and captured with a bioimaging instrument (Amersham Imager 680, Marlborough, USA).
# [1] = tested on: primary hippocampal neurons; experiment: Scratch injury: p-PKA analysis; assay type: cell-based, rat; details: 10 μM AMX immediately after scratch, 6 hours post-injury
# Procedure: Primary hippocampal neurons were obtained from embryonic day 18 (E18) Sprague-Dawley rat embryos. Pregnant rats were anesthetized using 2-3% isoflurane in a gas mixture of 70% nitrous oxide and 30% oxygen. Following euthanasia, the hippocampi were carefully dissected, minced, and enzymatically dissociated using TrypLE Express (Gibco, NY, USA) for 10 minutes at 37°C. The tissue was further mechanically dissociated using fire-polished glass pipettes, and the resulting cell suspension was filtered through a 70 μm cell strainer to remove debris. Neurons were seeded at a density of 3 × 10^5 cells per well in 24-well plates pre-coated with poly-L-lysine (Sigma-Aldrich, Saint Louis, MO, USA). […]
# A scratch injury model was used to mimic TBI in vitro. […] After the treatment period, neuronal damage and recovery were assessed using appropriate evaluation methods.
# Six hours after the scratch assay, cellular activity was terminated by replacing the culture medium with 0.1 M HCl. Cell lysates were then collected and analyzed for PKA activity using a commercial PKA kinase activity assay kit (Abcam, ab139435), following the manufacturer's protocol. […] Substrate phosphorylation was detected using a phospho-specific primary antibody and an HRP-conjugated secondary antibody. […] PKA activity was quantified as optical density (OD) values and expressed relative to control samples.
# [2] = tested on: activated microglia and astrocytes (Iba1, GFAP); details: post-seizure AMX treatment; cited from earlier work
# TBI rats = experiment: Controlled cortical impact TBI: modified neurological severity score; assay type: in vivo, rat
# Procedure: as §1
# A controlled cortical impact (CCI) model was used to induce TBI in rats. Animals were anesthetized with 1-1.5% isoflurane in a 30:70 oxygen-to-nitrous oxide mixture and securely positioned in a stereotaxic frame. […]
# The mNSS provides a quantitative measure of neurological function, with scores ranging from 0 (normal function) to 18 (severe dysfunction). The test evaluates multiple parameters to comprehensively assess neurological deficits: 1) Tail Suspension (3 points)—The rat's ability to be lifted by its tail is assessed, with higher scores indicating increased difficulty or inability to lift. 2) Balance and Posture (3 points)—The rat's ability to maintain proper posture and balance when placed on a flat surface is observed and scored. 3) Sensory Function ([…])—Sensory responses, including reactions to tactile or pain stimuli, are evaluated. 4) Beam Balance Test (6 points)—The rat's ability to walk on a narrow beam is assessed. […] 5) Reflexes and Abnormal Movements (4 points)—The presence or absence of reflexes, as well as abnormal behaviors or movements, are recorded and scored.
# BV2 cells = details: NF-κB/STAT3 downregulation; cited from earlier work
# [3] = hippocampus, 24 hours after TBI
# [4] = rat hippocampus, 24 hours post-TBI
# [5] = rat hippocampus, 24 hours post-TBI, vs TBI-vehicle
smiles,measurement,setting,value
"CC(C)c1ccc2oc3nc(N)c(C(=O)O)cc3c(=O)c2c1 [AMX, amlexanox]",IL-1β expression (Western blot),hippocampus of TBI rats; [3],markedly reduced the expression of both cytokines
same,TNF-α expression (Western blot),hippocampus of TBI rats; [3],markedly reduced the expression of both cytokines
same,LAMP2 expression,hippocampus of TBI rats; [4],preserved LAMP2 and LC3B expression
same,LC3B expression,hippocampus of TBI rats; [4],preserved LAMP2 and LC3B expression
same,phosphorylation of PERK,hippocampus of TBI rats; [5],significantly reduced the phosphorylation levels
same,phosphorylation of eIF2α,hippocampus of TBI rats; [5],significantly reduced the phosphorylation levels
same,phosphorylation of p38 MAPK,hippocampus of TBI rats; [5],significantly reduced the phosphorylation levels
same,p-PKA levels after scratch injury (ELISA),[1],restored cAMP and p-PKA levels
same,"activated microglia and astrocytes (Iba1, GFAP)",[2],markedly decreased activated microglia and astrocytes
same,"beam balance test of mNSS (balance control, videos)",TBI rats; TBI-AMX vs TBI-vehicle,performed better
same,ΔmNSS,"TBI rats; between day 1 and subsequent time points, vs vehicle",greater improvements in ΔmNSS
same,mNSS scores,"TBI rats; days 1 to 7 after TBI, daily AMX 100 mg/kg i.p., vs vehicle",lower mNSS scores
same,LPS-induced microglial activation,BV2 cells,attenuated LPS-induced microglial activation
